Molecules are shown by their SMILES.

T1 sequence (Q06187 382-659): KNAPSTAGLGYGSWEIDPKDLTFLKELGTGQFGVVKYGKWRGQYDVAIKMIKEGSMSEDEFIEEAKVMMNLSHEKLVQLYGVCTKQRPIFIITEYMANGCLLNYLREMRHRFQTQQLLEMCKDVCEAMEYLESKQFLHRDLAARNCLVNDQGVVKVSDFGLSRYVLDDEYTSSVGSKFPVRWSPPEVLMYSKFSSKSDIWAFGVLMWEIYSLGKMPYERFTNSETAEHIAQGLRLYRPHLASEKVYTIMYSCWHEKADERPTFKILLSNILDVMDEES

This assay has as its target T1, human BTK (Homo sapiens, UniProt Q06187).
T1 construct: GST (Glutathione-S-Transferase) (cleaved yes); made in house; host or cells: Spodoptera frugiperda Sf9 cells (baculovirus, Bac-to-Bac)
As to the kind of experiment: BTK inhibition assay: BTK-mediated phosphorylation of FAM-labeled substrate 5-FAM-EEPLYWSFPAKKK-NH2 (Caliper LC-3000). The assay is classed as biochemical. To be noted: pIC50 = -log(IC50), IC50 molar; residues 382 to 659 of human BTK; incubated at room temperature for 60 minutes; larger values represent higher potency. From the text: The activity of compounds as BTK inhibitors may be determined by a variety of methods, including in vitro and in vivo methods.
This construct engineers an in-frame translational fusion with the Glutathione-S-Transferase (GST) protein for use in affinity purification. The fusion protein derived from this construct contains a protease recognition sequence to liberate the BTK from the GST affinity tag. High-titer baculoviral stocks, generated using the Bac-to-Bac® system (Invitrogen), are used to express the recombinant protein in Spodoptera frugiperda Sf9 cells in 10 L Wave bags. Recombinant proteins are isolated from cellular extracts by passage over Glutathione Sepharose 4B (GE Healthcare) and the BTK moiety is released from the GST affinity tag by treatment with PreScission protease. The BTK recombinant protein is further purified by size exclusion chromatography (HiLoad 16/60 Superdex 200, GE Healthcare) in a buffer containing 20 mM Hepes (pH 7.4), 50 mM NaCl, 10 mM MgCl2, 0.25 mM TCEP and 0.1 mM EDTA. The purity of the fractions is assessed by SDS PAGE and the peak protein fractions are pooled and concentrated using Amicon Ultra-15 Centrifugal Filter Devices (Millipore).
The inhibitory properties of compounds relative to BTK is determined using a black 384-well-plate format in a buffer which contains 50 mM Hepes, 10 mM NaCl, 10 mM MgCl2, 0.2 mM EDTA, 0.01% Brij35®, 1 mM DTT, and 0.1 mg/mL BSA at pH 7.3. The test compound is prepared in DMSO using 2-fold serial dilutions for 11 data points, which are added to the buffer so that each dilution contains 3% DMSO. […] The reaction mixtures are incubated at room temperature for 60 minutes and then quenched by adding 25 μL of 50 mM EDTA. To quantify the fluorescent-labeled substrate and product following reaction, the test plate is loaded on a Caliper LC-3000, which measures percent of conversion by microfluidic-based separation.
The compounds were tested in accordance with the assay described on page 34 of the specification.
As to `COc1cc2cn[nH]c2cc1-c1ccc(F)c2c(N)c(C(N)=O)nnc12` [Example 111, 4-amino-5-fluoro-8-(5-methoxy-1H-indazol-6-yl)cinnoline-3-carboxamide], the concentration for half-maximal inhibition (IC50) (commonly the concentration that gives 50% inhibition) was 2 nM. Compound `Cc1ccc2c(N)c(C(N)=O)nnc2c1-c1ccc2c(cnn2C)c1` [Example 25, 4-amino-7-methyl-8-(1-methyl-1H-indazol-5-yl)cinnoline-3-carboxamide] showed a concentration for half-maximal inhibition (IC50) of 31.6 nM.

In turn, `Cc1ccc2c(N)c(C(N)=O)nnc2c1-c1ccc2c(C)n[nH]c2c1` [Example 99, 4-amino-7-methyl-8-(3-methyl-1H-indazol-6-yl)cinnoline-3-carboxamide] had an IC50 of 63.1 nM.

For the compound `CC(C)n1cnc2cc(-c3cccc4c(N)c(C(N)=O)nnc34)ccc21` [Example 17, 4-amino-8-(1-isopropyl-1H-benzo[d]imidazol-5-yl)cinnoline-3-carboxamide], the half-inhibitory concentration (IC50) is 50100 nM. `Cc1ccc2c(N)c(C(N)=O)nnc2c1-c1ccc2ncn(C)c2c1` [Example 23, 4-amino-7-methyl-8-(1-methyl-1H-benzo[d]imidazol-6-yl)cinnoline-3-carboxamide] showed an IC50 of 50.1 nM. On to `COc1ccc2c(N)c(C(N)=O)nnc2c1-c1ccc2[nH]ncc2c1` [Example 51, 4-amino-8-(1H-indazol-5-yl)-7-methoxycinnoline-3-carboxamide], for which the midpoint of inhibition, the IC50, lay at 12.6 nM. Compound `N#Cc1ccc2c(N)c(C(N)=O)nnc2c1-c1ccc2cn[nH]c2c1` [Example 135, 4-amino-7-cyano-8-(1H-indazol-6-yl)cinnoline-3-carboxamide] gave an IC50 of 126 nM. In turn, `NC(=O)c1nnc2c(-c3ccc4nc(NCc5ccccc5)[nH]c4c3)cccc2c1N` [Example 90, 4-amino-8-(2-(benzylamino)-1H-benzo[d]imidazol-6-yl)cinnoline-3-carboxamide] had a half-inhibitory concentration (IC50) of 15.8 nM. Turning to `Cc1ccc2c(N)c(C(N)=O)nnc2c1-c1ccc2c(C3CC3)n[nH]c2c1` [Example 106, 4-amino-8-(3-cyclopropyl-1H-indazol-6-yl)-7-methylcinnoline-3-carboxamide], the IC50 is 501 nM. Against the preceding compound, the IC50 is about 32-fold higher. In turn, `NC(=O)c1nnc2c(-c3ccc4nc(Cc5ccccc5)[nH]c4c3)cccc2c1N` [Example 77, 4-amino-8-(2-benzyl-1H-benzo[d]imidazol-6-yl)cinnoline-3-carboxamide] had an IC50 of 631 nM. In the case of `Cc1ccc2c(N)c(C(N)=O)nnc2c1-c1cnc2[nH]ncc2c1` [Example 47, 4-amino-7-methyl-8-(1H-pyrazolo[3,4-b]pyridin-5-yl)cinnoline-3-carboxamide], the IC50 was 79.4 nM.

`Cc1ccc2c(N)c(C(N)=O)nnc2c1-c1ccc2nc[nH]c2c1` [Example 22, 4-amino-8-(1H-benzo[d]imidazol-6-yl)-7-methylcinnoline-3-carboxamide] had a 50% inhibitory concentration (IC50) of 15.8 nM.

In turn, `COc1ccc2c(N)c(C(N)=O)nnc2c1-c1ccc2nc[nH]c2c1` [Example 46, 4-amino-8-(1H-benzo[d]imidazol-6-yl)-7-methoxycinnoline-3-carboxamide] gave an IC50 of 63.1 nM.

`NC(=O)c1nnc2c(-c3ccc4c(c3)CNC4=O)cccc2c1N` [Example 122] gave an IC50 of 20 nM.

`Cc1nc2ccc(-c3cccc4c(N)c(C(N)=O)nnc34)cc2[nH]1` [Example 16, 4-amino-8-(2-methyl-1H-benzo[d]imidazol-6-yl)cinnoline-3-carboxamide] gave an IC50 of 794 nM. For `Cc1ccc2c(N)c(C(N)=O)nnc2c1-c1ccc2ncn(CCO)c2c1` [Example 134, 4-amino-8-(1-(2-hydroxyethyl)-1H-benzo[d]imidazol-6-yl)-7-methylcinnoline-3-carboxamide], the IC50 was 794 nM.

With `NC(=O)c1nnc2c(-c3ccc4nc(-c5cccc(Cl)c5)[nH]c4c3)cccc2c1N` [Example 76, 4-amino-8-(2-(3-chlorophenyl)-1H-benzo[d]imidazol-6-yl)cinnoline-3-carboxamide], the IC50 was 126 nM. In turn, `Cn1ncc2cc(-c3cc(C(F)(F)F)cc4c(N)c(C(N)=O)nnc34)ccc21` [Example 34, 4-amino-8-(1-methyl-1H-indazol-5-yl)-6-(trifluoromethyl)cinnoline-3-carboxamide] showed an IC50 of 1580 nM. This IC50 lies about 13-fold higher than the previous one. In the case of `COc1cc(C)c(-c2ccc3cn[nH]c3c2)c2nnc(C(N)=O)c(N)c12` [Example 42, 4-amino-8-(1H-indazol-6-yl)-5-methoxy-7-methylcinnoline-3-carboxamide], half-maximal inhibition (IC50) required 10 nM. With `Cc1ccc2c(N)c(C(N)=O)nnc2c1-c1ccc2cn(C)nc2c1` [Example 52, 4-amino-7-methyl-8-(2-methyl-2H-indazol-6-yl)cinnoline-3-carboxamide], the IC50 was 2510 nM. Against the preceding compound, the IC50 is about 250-fold higher. In turn, `Cc1ccc2c(N)c(C(N)=O)nnc2c1-c1ccc2c(c1)CN(CCC(C)(C)O)C2=O` [Example 128, 4-amino-8-(2-(3-hydroxy-3-methylbutyl)-1-oxoisoindolin-5-yl)-7-methylcinnoline-3-carboxamide] had an IC50 of 7.94 nM. Take `Cc1ccc2c(N)c(C(N)=O)nnc2c1-c1ccc2cc[nH]c2c1` [Example 26, 4-amino-8-(1H-indol-6-yl)-7-methylcinnoline-3-carboxamide]: half-maximal inhibition (IC50) was put at 158 nM. As for `Cc1ccc2c(N)c(C(N)=O)nnc2c1-c1cnc2cc[nH]c2c1` [Example 21, 4-amino-7-methyl-8-(1H-pyrrolo[3,2-b]pyridin-6-yl)cinnoline-3-carboxamide], inhibition was half-maximal at 126 nM (IC50). With `NC(=O)c1nnc2c(-c3ccc4nc(-c5ccc(F)cc5F)[nH]c4c3)cccc2c1N` [Example 118, 4-amino-8-(2-(2,4-difluorophenyl)-1H-benzo[d]imidazol-6-yl)cinnoline-3-carboxamide] the figure was 100 nM; with `COc1ccc(-c2nc3ccc(-c4cccc5c(N)c(C(N)=O)nnc45)cc3[nH]2)cc1` [Example 74, 4-amino-8-(2-(4-methoxyphenyl)-1H-benzo[d]imidazol-6-yl)cinnoline-3-carboxamide], 79.4 nM; with `NC(=O)c1nnc2c(-c3ccc4nc(NCC5C6CC7CC(C6)CC5C7)[nH]c4c3)cccc2c1N` (stereo not shown) [Example 94, 8-(2-((adamantan-2-ylmethyl)amino)-1H-benzo[d]imidazol-6-yl)-4-aminocinnoline-3-carboxamide], 63.1 nM. Take `COc1ccc(-c2ccc3cn[nH]c3c2)c2nnc(C(N)=O)c(N)c12` [Example 38, 4-amino-8-(1H-indazol-6-yl)-5-methoxycinnoline-3-carboxamide]: the midpoint of inhibition, the IC50, lay at 39.8 nM. Compared with the last compound, the IC50 is about 1.6-fold lower. In turn, `Cc1ccc2c(N)c(C(N)=O)nnc2c1-c1ccc2cnccc2c1` [Example 58, 4-amino-8-(isoquinolin-6-yl)-7-methylcinnoline-3-carboxamide] showed an IC50 of 50.1 nM. This IC50 and that of the compound before are within 1.5-fold of each other. The compound `NC(=O)c1nnc2c(-c3ccc4nc(C5CCC(F)(F)CC5)[nH]c4c3)cccc2c1N` [Example 84, 4-amino-8-(2-(4,4-difluorocyclohexyl)-1H-benzo[d]imidazol-6-yl)cinnoline-3-carboxamide] showed an IC50 of 398 nM. `COc1ccc(-c2cc3[nH]ncc3cc2C)c2nnc(C(N)=O)c(N)c12` [Example 39, 4-amino-5-methoxy-8-(5-methyl-1H-indazol-6-yl)cinnoline-3-carboxamide] had an IC50 of 7.94 nM. Against the preceding compound, the IC50 is about 50-fold lower. With `Cc1ccc2c(N)c(C(N)=O)nnc2c1-c1ccc2cn[nH]c2c1` [Example 28, 4-amino-8-(1H-indazol-6-yl)-7-methylcinnoline-3-carboxamide], half-maximal inhibition (IC50) was put at 7.94 nM. For the compound `NC(=O)c1nnc2c(-c3cnc4cc[nH]c4c3)cccc2c1N` [Example 3, 4-amino-8-(1H-pyrrolo[3,2-b]pyridin-6-yl)cinnoline-3-carboxamide], the 50% inhibitory concentration (IC50) is 316 nM. In turn, `Cc1ccc2c(N)c(C(N)=O)nnc2c1-c1ccc2[nH]ccc2c1` [Example 24, 4-amino-8-(1H-indol-5-yl)-7-methylcinnoline-3-carboxamide] showed a 50% inhibitory concentration (IC50) of 251 nM.

`Cn1ncc2cc(-c3cccc4c(N)c(C(N)=O)nnc34)ccc21` [Example 2, 4-amino-8-(1-methyl-1H-indazol-5-yl)cinnoline-3-carboxamide] had a half-inhibitory concentration (IC50) of 158 nM.

As to `Cc1cc(C)cc(-c2nc3ccc(-c4cccc5c(N)c(C(N)=O)nnc45)cc3[nH]2)c1` [Example 80, 4-amino-8-(2-(3,5-dimethylphenyl)-1H-benzo[d]imidazol-6-yl)cinnoline-3-carboxamide], the IC50 is 39.8 nM. The compound `NC(=O)c1nnc2c(-c3ccc4c(c3)CN(c3ccccc3)C4=O)cccc2c1N` [Example 121, 4-amino-8-(1-oxo-2-phenylisoindolin-5-yl)cinnoline-3-carboxamide] showed an IC50 of 126 nM. `Cc1ccc2c(N)c(C(N)=O)nnc2c1-c1ccc2c(c1)CCNC2=O` [Example 63, 4-amino-7-methyl-8-(1-oxo-1,2,3,4-tetrahydroisoquinolin-6-yl)cinnoline-3-carboxamide] showed an IC50 of 25.1 nM.

(Values after US9365566B2 (Takeda Pharmaceutical Company Limited, priority 2012, dated 2016).)
